One test concerns A549. In words: Cytotoxicity against human A549 cells after 72 hrs by MTT assay. Particulars: for pIC50: Homo sapiens, A549, 72 h, read-out: IC50; for IC50: a549; call rule not given here. It is filed as functional, cell-based. Background: Formazan colour is commonly taken as a measure of viable cells.
Test [1] can be described thus: Cytotoxicity against human PC3 cells after 72 hrs by MTT assay. It is filed as functional, cell-based, PC-3. Particulars: for pIC50: Homo sapiens, PC-3, 72 h, read-out: IC50; for IC50: pc-3.
The subject of the next test is MCF7. The test can be described thus: Cytotoxicity against human MCF7 cells after 72 hrs by MTT assay. It is filed as functional, cell-based. The following applies: for pIC50: Homo sapiens, MCF7, 72 h, read-out: IC50; for IC50: mcf7.
In another test the test system is HeLa. The test can be described thus: Cytotoxicity against human HeLa cells after 72 hrs by MTT assay. It is filed as functional, cell-based. The following applies: for pIC50: Homo sapiens, HeLa, 72 h, read-out: IC50; for IC50: hela.
The subject of a further test is HepG2. The test can be described thus: Cytotoxicity against human HepG2 cells after 72 hrs by MTT assay. The class given is functional, cell-based. Particulars: for pIC50: Homo sapiens, HepG2, 72 h, read-out: IC50; for IC50: hepg2.
For test [2], the target named is T1, Serine/threonine-protein kinase mTOR (Homo sapiens, UniProt P42345). The test can be described thus: Inhibition of mTOR (unknown origin) at 10 uM using ULight4E-BP1 peptide as substrate incubated for 1 hr by TR-FRET assay. (In general: In TR-FRET formats the signal depends on donor and acceptor labels being close together.)
The target of test [3] is T2, Phosphatidylinositol 4,5-bisphosphate 3-kinase catalytic subunit alpha isoform (Homo sapiens, UniProt P42336). The test can be described thus: Inhibition of PI3Kalpha (unknown origin) at 10 uM using PI substrate incubated for 60 mins by kinase-glo luminescence assay.
T2 sequence (P42336 whole entry, canonical isoform): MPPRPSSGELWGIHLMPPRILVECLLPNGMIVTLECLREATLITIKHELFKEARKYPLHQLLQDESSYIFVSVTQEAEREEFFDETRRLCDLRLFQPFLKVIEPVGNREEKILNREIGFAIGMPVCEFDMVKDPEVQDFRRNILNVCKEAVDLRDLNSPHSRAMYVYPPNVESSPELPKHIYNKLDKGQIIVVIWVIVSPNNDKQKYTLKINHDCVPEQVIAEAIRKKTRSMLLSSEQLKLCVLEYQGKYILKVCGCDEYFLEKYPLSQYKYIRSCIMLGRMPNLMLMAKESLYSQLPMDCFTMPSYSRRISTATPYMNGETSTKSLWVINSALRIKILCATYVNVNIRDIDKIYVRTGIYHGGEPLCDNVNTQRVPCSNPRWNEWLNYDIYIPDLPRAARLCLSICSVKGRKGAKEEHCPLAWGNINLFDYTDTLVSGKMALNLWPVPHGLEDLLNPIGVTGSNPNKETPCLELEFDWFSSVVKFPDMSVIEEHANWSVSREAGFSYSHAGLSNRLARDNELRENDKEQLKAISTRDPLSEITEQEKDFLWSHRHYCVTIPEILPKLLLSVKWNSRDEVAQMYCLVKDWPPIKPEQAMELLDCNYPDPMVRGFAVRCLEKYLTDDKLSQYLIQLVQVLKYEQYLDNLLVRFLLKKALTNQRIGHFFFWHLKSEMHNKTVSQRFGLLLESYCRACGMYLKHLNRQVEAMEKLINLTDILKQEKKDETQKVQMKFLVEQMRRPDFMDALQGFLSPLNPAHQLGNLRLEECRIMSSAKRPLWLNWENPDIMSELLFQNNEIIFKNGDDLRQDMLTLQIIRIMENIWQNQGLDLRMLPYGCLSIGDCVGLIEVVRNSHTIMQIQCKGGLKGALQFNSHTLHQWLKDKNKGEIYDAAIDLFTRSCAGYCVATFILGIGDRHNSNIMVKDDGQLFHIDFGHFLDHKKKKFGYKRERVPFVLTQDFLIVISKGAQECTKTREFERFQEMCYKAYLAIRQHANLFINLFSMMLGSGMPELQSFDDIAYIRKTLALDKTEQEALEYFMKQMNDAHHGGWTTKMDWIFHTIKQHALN
The target of test [4] is T1, Serine/threonine-protein kinase mTOR. In words: Inhibition of mTOR (unknown origin) using ULight4E-BP1 peptide as substrate incubated for 1 hr by TR-FRET assay.
Test [5] has as its target T2, Phosphatidylinositol 4,5-bisphosphate 3-kinase catalytic subunit alpha isoform. The test can be described thus: Inhibition of PI3Kalpha (unknown origin) using PI substrate incubated for 60 mins by kinase-glo luminescence assay. For orientation: In Kinase-Glo more light means more ATP remaining.

pIC50: −log10 of the molar value. Where only a bound is given, the exact number is not on record here.

On to `O=c1c(/C=N/Nc2nc3c(c(N4CCOCC4)n2)CSCC3)coc2ccc([N+](=O)[O-])cc12`, for which the negative logarithm of the IC50 (pIC50) (as a rule, −log10 of the IC50, conventionally taken in molar units) is 4.70 in the test on A549; 4.46 in test [1]; 4.67 with MCF7; 4.94 in the test with HeLa; 4.90 in the test with HepG2. For the same molecule, the inhibition (in general, the change of the read-out against control, counted positive when it falls) came to 66.4% in test [2] and 16.7% in test [3].
For `O=c1c(/C=N/Nc2nc3c(c(N4CCOCC4)n2)CS(=O)(=O)CC3)coc2ccc(Br)cc12`, the figures for the pIC50 (in the test with A549; in test [1]; in the test with MCF7) were 4.30, 4.19 and 4.22, respectively. For the same molecule, the IC50 result with HeLa and in the test with HepG2 was “Not Active” throughout.
Regarding `CCc1ccc2occ(/C=N/Nc3nc4c(c(N5CCOCC5)n3)CSCC4)c(=O)c2c1`, the pIC50 in the test with A549 was 4.68; in test [1] it was 4.62; in the test with MCF7, 4.95; with HeLa, 5.00; in the test with HepG2 it was 4.86. Besides, the IC50 result in [4] was “Not Active”.
For the molecule `O=c1c(/C=N/Nc2nc3c(c(N4CCOCC4)n2)CS(=O)(=O)CC3)coc2ccc([N+](=O)[O-])cc12`, the IC50 entry (with A549; in test [1]; in the test on MCF7) was “Not Active” in each case.
Turning to `O=C(O)c1ccc2occ(/C=N/Nc3nc4c(c(N5CCOCC5)n3)CSCC4)c(=O)c2c1`, the negative logarithm of the IC50 (pIC50) was 4.98 with A549; 4.84 in test [1]; 4.93 with MCF7; 4.99 with HeLa; 5.06 in the test with HepG2; 5.96 in test [4] (read-out: IC50). For the same molecule, in [5] (read-out: IC50), the negative logarithm of the IC50 (pIC50) was 6.04.
As for `Cc1ccc2occ(/C=N/Nc3nc4c(c(N5CCOCC5)n3)CS(=O)(=O)CC4)c(=O)c2c1`, the pIC50 with A549 is 4.68; in [1], 4.42; in the test with MCF7, 4.66; in the test with HeLa it was 4.72; in the test with HepG2, 4.63.
Consider `O=c1c(/C=N/Nc2nc3c(c(N4CCOCC4)n2)CSCC3)coc2ccc(F)cc12`, for which the pIC50 with A549 is 5.16; in test [1] it was 4.08; with MCF7 it was 4.95; in the test with HeLa, 6.42; with HepG2, 6.55. Moreover, in test [4], the IC50 result was “Not Active”.
`O=c1c(/C=N/Nc2nc3c(c(N4CCOCC4)n2)CS(=O)(=O)CC3)coc2ccc(O)cc12`: the IC50 entry (with A549; in test [1]; in the test with MCF7) was “Not Active” in each case.
As to `CC(C)(C)c1ccc2occ(/C=N/Nc3nc4c(c(N5CCOCC5)n3)CS(=O)(=O)CC4)c(=O)c2c1`, the pIC50 was 4.74 in the test on A549; 4.75 in [1]; 4.75 with MCF7; 4.82 with HeLa; 4.83 with HepG2. For the same molecule, the inhibition in test [2] was 44.7%; in test [3] it was 13.8%.
As for `O=c1c(/C=N/Nc2nc3c(c(N4CCOCC4)n2)CS(=O)(=O)CC3)coc2ccc(F)cc12`, the IC50 entry (with A549; in test [1]; in the test with MCF7) was “Not Active” each time.
Turning to `O=C(O)c1ccc2occ(/C=N/Nc3nc4c(c(N5CCOCC5)n3)CS(=O)(=O)CC4)c(=O)c2c1`, the IC50 result (with A549; in test [1]; in the test on MCF7) was “Not Active” in each case.
Regarding `CC(C)c1ccc2occ(/C=N/Nc3nc4c(c(N5CCOCC5)n3)CS(=O)(=O)CC4)c(=O)c2c1`, the pIC50 in the test with A549 was 4.59; in test [1], 4.46; in the test with MCF7, 4.56; in the test with HeLa, 4.58; with HepG2 it was 4.55.
As for `CC(C)(C)c1ccc2occ(/C=N/Nc3nc4c(c(N5CCOCC5)n3)CSCC4)c(=O)c2c1`, the pIC50 with A549 is 4.94; in test [1] it was 4.82; in the test on MCF7 it was 5.41; in the test on HeLa, 6.77; in the test with HepG2 it was 5.74. The inhibition came out at 36.4% in test [2] and 24% in test [3].
In the case of `COc1cc(/C=N/Nc2nc3c(c(N4CCOCC4)n2)CSCC3)cc(OC)c1O`, the values for the pIC50 in the test with A549 and in the test with MCF7 were 5.13 and 5.23, respectively. For the same molecule, the IC50 result in test [5] was “Not Active”.
As to `O=c1c(/C=N/Nc2nc3c(c(N4CCOCC4)n2)CSCC3)coc2ccc(Br)cc12`, the negative logarithm of the IC50 (pIC50) (with A549; in test [1]; in the test with MCF7; in the test with HeLa; with HepG2) was under 4.00 throughout.
In the case of `O=c1c(/C=N/Nc2nc3c(c(N4CCOCC4)n2)CSCC3)coc2ccc(Cl)cc12`, the pIC50 was under 4.00 with A549, 4.49 in [1] and 4.87 in the test on HeLa. Moreover, the IC50 entry in the test with MCF7 and in the test with HepG2 was “Not Active” in each case.
In the case of `CC(C)c1ccc2occ(/C=N/Nc3nc4c(c(N5CCOCC5)n3)CSCC4)c(=O)c2c1`, the pIC50 was 5.02 with A549; 4.76 in [1]; 4.88 in the test on MCF7; 4.81 with HeLa; 5.00 with HepG2. The IC50 result in [4] was “Not Active”.
As to `O=c1c(/C=N/Nc2nc3c(c(N4CCOCC4)n2)CSCC3)coc2ccc(O)cc12`, the pIC50 (in the test on A549; in test [1]) was under 4.00 each time. Besides, the IC50 entry in the test with MCF7, in the test with HeLa and with HepG2 was “Not Active” throughout.
For the molecule `O=c1c(/C=N/Nc2nc3c(c(N4CCOCC4)n2)CS(=O)(=O)CC3)coc2ccc(Cl)cc12`, the negative logarithm of the IC50 (pIC50) with A549 is 4.75; in test [1] it was 4.33; with MCF7, 4.63; in the test on HeLa, 4.52; in the test on HepG2, 4.42.
Turning to `CS(=O)(=O)N1CCN(Cc2cc3nc(-c4cccc5[nH]ncc45)nc(N4CCOCC4)c3s2)CC1` [PICTILISIB], the results for the negative logarithm of the IC50 (pIC50) (in the test with A549; in [1]; in the test on MCF7) were 5.16, 6.70 and 7.15, respectively.
As for `CCc1ccc2occ(/C=N/Nc3nc4c(c(N5CCOCC5)n3)CS(=O)(=O)CC4)c(=O)c2c1`, the pIC50 in the test with A549 was 4.58; in test [1], 4.52; with MCF7 it was 4.54; with HeLa, 4.69; in the test with HepG2, 4.59.
For `Cc1ccc2occ(/C=N/Nc3nc4c(c(N5CCOCC5)n3)CSCC4)c(=O)c2c1`, the negative-log IC50 (pIC50) with A549 was 4.37; in test [1] it was under 4.00; in the test on MCF7, 4.44; in the test on HeLa, 4.80. In addition, the IC50 entry in the test on HepG2 is reported as “Not Active”.

For the origin of these results see ChEMBL document CHEMBL3813678, “Synthesis and anticancer activity of novel 4-morpholino-7,8-dihydro-5H-thiopyrano[4,3-d]pyrimidine derivatives bearing chromone moiety” (Bioorg Med Chem, 2016).
